The values below come from patent US20100173281A1, “HCV NS3 protease replicon shuttle vectors” (priority 2009, published 2010).

Experiment [1] concerns replicon shuttle vector pSC_1b_NS3/Protease_EcoRV_AsiSI in Lunet Huh7 cells. Nature of the experiment: Phenotypic replicon assay (transient replicon, firefly luciferase reporter), control shuttle vector. It counts as cell-based, HCV. The conditions noted are these: read-out: Mean IC50. As for the experimental part: Phenotypic Replicon Assay
Five micrograms of DNA plasmids were linearized by Sca I restriction enzyme (Roche). After overnight digestion at 37° C., the DNA was purified using Qiagen PCR purification kit. One microgram of linearized DNA was used for the in vitro transcription using T7 RiboMAX Express (Promega) following manufacturer's protocol. After 2 hours of incubation at 37° C., DNase treatment was performed for 30 minutes at 37° C. to remove the DNA template. In vitro transcribed RNA was then purified using RNeasy spin column (Qiagen) following manufacturer's protocol.
The hepatoma Lunet Huh-7 cell line were cultured at 37° C. in a humidified atmosphere with 5% CO2 in Dulbecco's Modified Eagle Medium (DMEM) supplemented with Glutamax™ and […] sodium pyruvate. The medium was further supplemented with 10% (v/v) FBS and 1% (v/v) penicillin/streptomycin. All reagents were from Invitrogen/Gibco.
Four million Lunet Huh7 cells were transfected with 5 μg of in vitro transcribed RNA using electroporation. Cells were then resuspended in 7.2 ml of DMEM containing 5% FBS and plated in 96-well plate at 50000 cells/well (in 90 μl final volume). Inhibitors (when used) were added 24 hours post-transfection in 3 fold dilutions at a final DMSO concentration of 1% and firefly luciferase reporter signal was read 72 hours after addition of inhibitors using the Luciferase Assay system (Promega). The IC50 values were assessed as the inhibitor concentration at which a 50% reduction in the level of firefly luciferase reporter was observed as compared to the level of firefly luciferase signal without the addition of compounds.
The replication capacity of the replicon shuttle vector, pSC—1b_NS3/Protease_EcoRV_AsiSI, as well as those of replicons that contain HCV genotype-1a and genotype-1b patient-derived NS3 protease domains were tested with the luciferase signal as the readout and the results are shown on FIG. 3. The inhibitory effects of the HCV protease inhibitors, BILN2061, VX-950 and NM107 were also tested on these replicons and the results are shown on Table 1.

Experiment [2] deals with replicons that contain HCV genotype-1a patient-derived NS3 protease domains in Lunet Huh7 cells. The experiment can be described thus: Phenotypic replicon assay (transient replicon, firefly luciferase reporter), genotype-1a patient-derived NS3 protease. It counts as cell-based. A general note: In antiviral work, replicon cells carry a viral genome segment that copies itself.

Experiment [3] deals with replicons that contain HCV genotype-1b patient-derived NS3 protease domains in Lunet Huh7 cells. Nature of the experiment: Phenotypic replicon assay (transient replicon, firefly luciferase reporter), genotype-1b patient-derived NS3 protease. The format is cell-based.
The mark [4] stands for this setting: Hepatitis C virus, Huh-7, read-out: Mean IC50, GT-1a patient sample RO-191.
The mark [5] stands for this setting: Hepatitis C virus, Huh-7, read-out: Mean IC50, GT-1a patient sample RO-192.
The mark [6] stands for this setting: Hepatitis C virus, Huh-7, read-out: Mean IC50, GT-1a patient sample RO-193.
Setting [7] is: Hepatitis C virus, Huh-7, read-out: Mean IC50, GT-1a patient sample RO-194.
The mark [8] stands for this setting: Hepatitis C virus, Huh-7, read-out: Mean IC50, GT-1a patient sample RO-195.
Setting [9] is: Hepatitis C virus, Huh-7, read-out: Mean IC50, GT-1a patient sample RO-207.
The mark [10] stands for this setting: Hepatitis C virus, Huh-7, read-out: Mean IC50, GT-1b patient sample 206.
The mark [11] stands for this setting: Hepatitis C virus, Huh-7, read-out: Mean IC50, GT-1b patient sample 301.
[12] abbreviates: Hepatitis C virus, Huh-7, read-out: Mean IC50, GT-1b patient sample PC232.

Read-outs that look alike come from different tables or passages of the source.

In general, IC50 refers to the concentration at which inhibition is half-maximal.

On to `COc1ccc2c(O[C@@H]3C[C@H]4C(=O)N[C@]5(C(=O)O)C[C@H]5/C=C\CCCCC[C@H](NC(=O)OC5CCCC5)C(=O)N4C3)cc(-c3csc(NC(C)C)n3)nc2c1` [BILN2061], for which the IC50 worked out at 0.489 nM in experiment [1] (Hepatitis C virus, Huh-7, 72 h); 0.798 nM in experiment [2] (setting [4]); 0.34 nM in experiment [2] (setting [5]); 0.298 nM in experiment [2] (setting [6]); 0.665 nM in experiment [2] (setting [7]); 0.629 nM in experiment [2] (setting [8]). In addition, the half-maximal inhibitory concentration (IC50) is 0.386 nM in experiment [2] (setting [9]), 0.643 nM in experiment [3] (setting [10]), 0.378 nM in experiment [3] (setting [11]) and 0.468 nM in experiment [3] (setting [12]).

Take `CCC[C@H](NC(=O)[C@@H]1[C@H]2CCC[C@H]2CN1C(=O)[C@@H](NC(=O)[C@@H](NC(=O)c1cnccn1)C1CCCCC1)C(C)(C)C)C(=O)C(=O)NC1CC1` [VX-950]: the IC50 came out at 0.16 nM in experiment [1] (Hepatitis C virus, Huh-7, 72 h); 0.057 nM in experiment [2] (setting [4]); 0.068 nM in experiment [2] (setting [5]); 0.132 nM in experiment [2] (setting [6]); 0.052 nM in experiment [2] (setting [7]); 0.028 nM in experiment [2] (setting [8]). Further, the IC50 was 0.083 nM in experiment [2] (setting [9]), 0.175 nM in experiment [3] (setting [10]), 0.162 nM in experiment [3] (setting [11]) and 0.166 nM in experiment [3] (setting [12]).

Take `C[C@@]1(O)[C@H](O)[C@@H](CO)O[C@H]1n1ccc(N)nc1=O` [NM107]: the IC50 in experiment [1] (replicon control pSC_1b_NS3/Protease_EcoRV_AsiSI, luciferase read 72 hours after addition of inhibitors) is 283 nM; in experiment [2] (GT-1a patient sample RO-191, read-out: Mean IC50) it was 539 nM; in experiment [2] (GT-1a patient sample RO-192, read-out: Mean IC50), 554 nM; in experiment [2] (GT-1a patient sample RO-193, read-out: Mean IC50), 640 nM; in experiment [2] (GT-1a patient sample RO-194, read-out: Mean IC50), 509 nM; in experiment [2] (GT-1a patient sample RO-195, read-out: Mean IC50), 312 nM. In addition, the IC50 in experiment [2] (GT-1a patient sample RO-207, read-out: Mean IC50) turned out to be 1160 nM; in experiment [3] (GT-1b patient sample 206, read-out: Mean IC50), 279 nM; in experiment [3] (GT-1b patient sample 301, read-out: Mean IC50) it was 279 nM; in experiment [3] (GT-1b patient sample PC232, read-out: Mean IC50) it was 449 nM.
